# PubChem BioAssay (NCI)
#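 These data come from cells grown in 96-well plates and exposed to compound for 48 hours at five concentrations. Abbreviation: GI50, concentration required for 50% inhibition of growth. Definition used: TGI = concentration required for complete inhibition of growth.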
# Key:
# Experiment in all cases: NCI anticancer screen, dose series, 48 h
# SW-620 colon = test system: SW-620 colon
# OVCAR-4 ovarian = test system: OVCAR-4 ovarian
# DU-145 prostate = test system: DU-145 prostate
# RXF 393 renal = test system: RXF 393 renal
# CAKI-1 renal = test system: CAKI-1 renal
# SF-295 CNS = test system: SF-295 CNS
# CCRF-CEM leukemia = test system: CCRF-CEM leukemia
# KM12 colon = test system: KM12 colon
# SK-OV-3 ovarian = test system: SK-OV-3 ovarian
# HL-60(TB) leukemia = test system: HL-60(TB) leukemia
# BT-549 breast = test system: BT-549 breast
# IGROV1 ovarian = test system: IGROV1 ovarian
# NCI/ADR-RES ovarian = test system: NCI/ADR-RES ovarian
# RPMI-8226 leukemia = test system: RPMI-8226 leukemia
# SK-MEL-2 melanoma = test system: SK-MEL-2 melanoma
# NCI-H522 lung = test system: NCI-H522 lung
# HS 578T breast = test system: HS 578T breast
# SF-268 CNS = test system: SF-268 CNS
# MCF7 breast = test system: MCF7 breast
# NCI-H460 lung = test system: NCI-H460 lung
# UO-31 renal = test system: UO-31 renal
# HT29 colon = test system: HT29 colon
# A498 renal = test system: A498 renal
# ACHN renal = test system: ACHN renal
# A549 NSCLC = test system: A549 NSCLC
# HOP-62 NSCLC = test system: HOP-62 NSCLC
# MDA-MB-231 breast = test system: MDA-MB-231 breast
# COLO 205 colon = test system: COLO 205 colon
# HCT-15 colon = test system: HCT-15 colon
# SN12C renal = test system: SN12C renal
# OVCAR-3 ovarian = test system: OVCAR-3 ovarian
# UACC-257 melanoma = test system: UACC-257 melanoma
# HCC-2998 colon = test system: HCC-2998 colon
# EKVX NSCLC = test system: EKVX NSCLC
# 786-0 renal = test system: 786-0 renal
# U251 CNS = test system: U251 CNS
# HCT-116 colon = test system: HCT-116 colon
# SR leukemia = test system: SR leukemia
# SK-MEL-28 melanoma = test system: SK-MEL-28 melanoma
# OVCAR-8 ovarian = test system: OVCAR-8 ovarian
# MDA-MB-435 = test system: MDA-MB-435
# SNB-19 CNS = test system: SNB-19 CNS
# NCI-H23 lung = test system: NCI-H23 lung
# UACC-62 melanoma = test system: UACC-62 melanoma
# SK-MEL-5 melanoma = test system: SK-MEL-5 melanoma
# HOP-92 NSCLC = test system: HOP-92 NSCLC
# SNB-75 CNS = test system: SNB-75 CNS
# T-47D breast = test system: T-47D breast
# K-562 leukemia = test system: K-562 leukemia
# OVCAR-5 ovarian = test system: OVCAR-5 ovarian
# TK-10 renal = test system: TK-10 renal
# NCI-H226 lung = test system: NCI-H226 lung
# LOX IMVI melanoma = test system: LOX IMVI melanoma
# M14 melanoma = test system: M14 melanoma
# PC-3 prostate = test system: PC-3 prostate
# MALME-3M melanoma = test system: MALME-3M melanoma
# MOLT-4 leukemia = test system: MOLT-4 leukemia
# SF-539 CNS = test system: SF-539 CNS
structure (smiles),measurement,setting,value
Cc1cc(C)c(C(=O)CC(=O)c2cccnc2)c(C)c1,GI50,SW-620 colon,4.72 µM
same,TGI,SW-620 colon,> 100 µM
same,GI50,OVCAR-4 ovarian,8.59 µM
same,TGI,OVCAR-4 ovarian,> 100 µM
same,GI50,DU-145 prostate,12.2 µM
same,TGI,DU-145 prostate,> 100 µM
same,GI50,RXF 393 renal,10.7 µM
same,TGI,RXF 393 renal,60.2 µM
same,GI50,CAKI-1 renal,1.34 µM
same,TGI,CAKI-1 renal,5.52 µM
same,GI50,SF-295 CNS,2.78 µM
same,TGI,SF-295 CNS,83.5 µM
same,GI50,CCRF-CEM leukemia,4.1 µM
same,TGI,CCRF-CEM leukemia,45.8 µM
same,GI50,KM12 colon,8.01 µM
same,TGI,KM12 colon,> 100 µM
same,GI50,SK-OV-3 ovarian,9.04 µM
same,TGI,SK-OV-3 ovarian,> 100 µM
same,GI50,HL-60(TB) leukemia,8.59 µM
same,TGI,HL-60(TB) leukemia,31.7 µM
same,GI50,BT-549 breast,2.25 µM
same,TGI,BT-549 breast,33.9 µM
same,GI50,IGROV1 ovarian,4.39 µM
same,TGI,IGROV1 ovarian,> 100 µM
same,GI50,NCI/ADR-RES ovarian,2.29 µM
same,TGI,NCI/ADR-RES ovarian,9.88 µM
same,GI50,RPMI-8226 leukemia,5.31 µM
same,TGI,RPMI-8226 leukemia,> 100 µM
same,GI50,SK-MEL-2 melanoma,17.3 µM
same,TGI,SK-MEL-2 melanoma,> 100 µM
same,GI50,NCI-H522 lung,13.4 µM
same,TGI,NCI-H522 lung,> 100 µM
same,GI50,HS 578T breast,9.4 µM
same,TGI,HS 578T breast,> 100 µM
same,GI50,SF-268 CNS,10.5 µM
same,TGI,SF-268 CNS,> 100 µM
same,GI50,MCF7 breast,5.96 µM
same,TGI,MCF7 breast,> 100 µM
same,GI50,NCI-H460 lung,3.39 µM
same,TGI,NCI-H460 lung,82.9 µM
same,GI50,UO-31 renal,4.63 µM
same,TGI,UO-31 renal,> 100 µM
same,GI50,HT29 colon,4.85 µM
same,TGI,HT29 colon,> 100 µM
same,GI50,A498 renal,18.8 µM
same,TGI,A498 renal,94.1 µM
same,GI50,ACHN renal,6.28 µM
same,TGI,ACHN renal,> 100 µM
same,GI50,A549 NSCLC,6.97 µM
same,TGI,A549 NSCLC,> 100 µM
same,GI50,HOP-62 NSCLC,6.32 µM
same,TGI,HOP-62 NSCLC,> 100 µM
same,GI50,MDA-MB-231 breast,11.2 µM
same,TGI,MDA-MB-231 breast,> 100 µM
same,GI50,COLO 205 colon,8.01 µM
same,TGI,COLO 205 colon,> 100 µM
same,GI50,HCT-15 colon,3.36 µM
same,TGI,HCT-15 colon,> 100 µM
same,GI50,SN12C renal,9.35 µM
same,TGI,SN12C renal,> 100 µM
same,GI50,OVCAR-3 ovarian,5.78 µM
same,TGI,OVCAR-3 ovarian,77.4 µM
same,GI50,UACC-257 melanoma,27.2 µM
same,TGI,UACC-257 melanoma,> 100 µM
same,GI50,HCC-2998 colon,12.8 µM
same,TGI,HCC-2998 colon,> 100 µM
same,GI50,EKVX NSCLC,3.97 µM
same,TGI,EKVX NSCLC,69.6 µM
same,GI50,786-0 renal,9.45 µM
same,TGI,786-0 renal,50.1 µM
same,GI50,U251 CNS,3.67 µM
same,TGI,U251 CNS,> 100 µM
same,GI50,HCT-116 colon,4.31 µM
same,TGI,HCT-116 colon,> 100 µM
same,GI50,SR leukemia,2.81 µM
same,TGI,SR leukemia,33.2 µM
same,GI50,SK-MEL-28 melanoma,14 µM
same,TGI,SK-MEL-28 melanoma,> 100 µM
same,GI50,OVCAR-8 ovarian,4.58 µM
same,TGI,OVCAR-8 ovarian,> 100 µM
same,GI50,MDA-MB-435,7.48 µM
same,TGI,MDA-MB-435,> 100 µM
same,GI50,SNB-19 CNS,6.34 µM
same,TGI,SNB-19 CNS,> 100 µM
same,GI50,NCI-H23 lung,11.1 µM
same,TGI,NCI-H23 lung,> 100 µM
same,GI50,UACC-62 melanoma,4.52 µM
same,TGI,UACC-62 melanoma,41.8 µM
same,GI50,SK-MEL-5 melanoma,7.56 µM
same,TGI,SK-MEL-5 melanoma,> 100 µM
same,GI50,HOP-92 NSCLC,7.47 µM
same,TGI,HOP-92 NSCLC,57 µM
same,GI50,SNB-75 CNS,26.6 µM
same,TGI,SNB-75 CNS,> 100 µM
same,GI50,T-47D breast,10.2 µM
same,TGI,T-47D breast,> 100 µM
same,GI50,K-562 leukemia,3.71 µM
same,TGI,K-562 leukemia,> 100 µM
same,GI50,OVCAR-5 ovarian,9.84 µM
same,TGI,OVCAR-5 ovarian,> 100 µM
same,GI50,TK-10 renal,9.77 µM
same,TGI,TK-10 renal,> 100 µM
same,GI50,NCI-H226 lung,7.34 µM
same,TGI,NCI-H226 lung,86.8 µM
same,GI50,LOX IMVI melanoma,4.84 µM
same,TGI,LOX IMVI melanoma,> 100 µM
same,GI50,M14 melanoma,5.31 µM
same,TGI,M14 melanoma,33.9 µM
same,GI50,PC-3 prostate,8.73 µM
same,TGI,PC-3 prostate,> 100 µM
same,GI50,MALME-3M melanoma,14.1 µM
same,TGI,MALME-3M melanoma,> 100 µM
same,GI50,MOLT-4 leukemia,4.41 µM
same,TGI,MOLT-4 leukemia,38.4 µM
same,GI50,SF-539 CNS,6.93 µM
same,TGI,SF-539 CNS,45.7 µM
